Assay results from BindingDB's records for doi:10.1016/S0960-894X(96)00609-9 (1997).

Molecular target: Gastrin/cholecystokinin type B receptor (Cavia porcellus)
Experiment: Inhibition of [125I]Cholecystokinin-8 binding to Cholecystokinin type B receptor of guinea pig cerebral cortical membranes

| SMILES | IC50 [nM] |
| --- | --- |
| CC(=O)c1cccc(NC(=O)NC2N=C(c3ccccc3F)c3cccc(C)c3N(CC(=O)N3CC4CCC(CC4)C3)C2=O)c1 (centres undefined) [1-(3-Acetyl-phenyl)-3-[1-[2-(3-aza-bicyclo[3.2.2]non-3-yl)-2-oxo-ethyl]-5-(2-fluoro-phenyl)-9-methyl-2-oxo-2,3-dihydro-1H-benzo[e][1,4]diazepin-3-yl]-urea] | 0.84 |
| Cc1cccc2c1N(CC(=O)N1CC3CCC(CC3)C1)C(=O)C(NC(=O)Nc1cccc(Br)c1)N=C2c1ccccc1F (centres undefined) [1-[1-[2-(3-Aza-bicyclo[3.2.2]non-3-yl)-2-oxo-ethyl]-5-(2-fluoro-phenyl)-9-methyl-2-oxo-2,3-dihydro-1H-benzo[e][1,4]diazepin-3-yl]-3-(3-bromo-phenyl)-urea] | 1.8 |
| Cc1cccc2c1N(CC(=O)N1CC3CCC(CC3)C1)C(=O)C(NC(=O)Nc1cccc(Cl)c1)N=C2c1ccccc1F (centres undefined) [1-[1-[2-(3-Aza-bicyclo[3.2.2]non-3-yl)-2-oxo-ethyl]-5-(2-fluoro-phenyl)-9-methyl-2-oxo-2,3-dihydro-1H-benzo[e][1,4]diazepin-3-yl]-3-(3-chloro-phenyl)-urea] | 2 |
| COc1cccc(NC(=O)NC2N=C(c3ccccc3F)c3cccc(C)c3N(CC(=O)N3CC4CCC(CC4)C3)C2=O)c1 (centres undefined) [1-[1-[2-(3-Aza-bicyclo[3.2.2]non-3-yl)-2-oxo-ethyl]-5-(2-fluoro-phenyl)-9-methyl-2-oxo-2,3-dihydro-1H-benzo[e][1,4]diazepin-3-yl]-3-(3-methoxy-phenyl)-urea] | 1 |
| CSc1cccc(NC(=O)NC2N=C(c3ccccc3F)c3cccc(C)c3N(CC(=O)N3CC4CCC(CC4)C3)C2=O)c1 (centres undefined) [1-[1-[2-(3-Aza-bicyclo[3.2.2]non-3-yl)-2-oxo-ethyl]-5-(2-fluoro-phenyl)-9-methyl-2-oxo-2,3-dihydro-1H-benzo[e][1,4]diazepin-3-yl]-3-(3-methylsulfanyl-phenyl)-urea] | 0.37 |
| Cc1cccc(NC(=O)NC2N=C(c3ccccc3F)c3cccc(C)c3N(CC(=O)N3CC4CCC(CC4)C3)C2=O)c1 (centres undefined) [1-[1-[2-(3-Aza-bicyclo[3.2.2]non-3-yl)-2-oxo-ethyl]-5-(2-fluoro-phenyl)-9-methyl-2-oxo-2,3-dihydro-1H-benzo[e][1,4]diazepin-3-yl]-3-m-tolyl-urea] | 0.47 |
| Cc1cccc2c1N(CC(=O)N1CC3CCC(CC3)C1)C(=O)C(NC(=O)Nc1cccc(C(=O)O)c1)N=C2c1ccccc1F (centres undefined) [3-{3-[1-[2-(3-Aza-bicyclo[3.2.2]non-3-yl)-2-oxo-ethyl]-5-(2-fluoro-phenyl)-9-methyl-2-oxo-2,3-dihydro-1H-benzo[e][1,4]diazepin-3-yl]-ureido}-benzoic acid] | 0.96 |
| Cc1cccc(NC(=O)NC2N=C(c3ccccc3F)c3ccccc3N(CC(=O)N3CC4CCC(CC4)C3)C2=O)c1 (centres undefined) [FR-175985] | 0.087 |

Molecular target: not listed separately
Experiment: Inhibition of [125I]-Cholecystokinin-8 (125I-CCK-8) binding to Cholecystokinin type B receptor of guinea pig cerebral cortical membranes

| SMILES | IC50 [nM] |
| --- | --- |
| Cc1cccc2c1N(CC(=O)N1CC3CCC(CC3)C1)C(=O)C(NC(=O)Nc1cccc(-c3nnn[nH]3)c1)N=C2c1ccccc1F (centres undefined) [1-[1-[2-(3-Aza-bicyclo[3.2.2]non-3-yl)-2-oxo-ethyl]-5-(2-fluoro-phenyl)-9-methyl-2-oxo-2,3-dihydro-1H-benzo[e][1,4]diazepin-3-yl]-3-[3-(1H-tetrazol-5-yl)-phenyl]-urea] | 6.4 |
